Read-outs that look alike come from different tables or passages of the source.
Legend:
A549/ATCC = tested on: A549/ATCC; design: method as in https://dtp.cancer.gov/dtpstandard/dwindex/index.jsp; conditions: reference drugs, ref https://dtp.cancer.gov/dtpstandard/dwindex/index.jsp; cited from earlier work
KM12 = tested on: KM12; design: method as in https://dtp.cancer.gov/dtpstandard/dwindex/index.jsp; conditions: reference drugs, ref https://dtp.cancer.gov/dtpstandard/dwindex/index.jsp; cited from earlier work
SW-620 = tested on: SW-620; design: method as in https://dtp.cancer.gov/dtpstandard/dwindex/index.jsp; conditions: reference drugs, ref https://dtp.cancer.gov/dtpstandard/dwindex/index.jsp; cited from earlier work
LOX IMVI = tested on: LOX IMVI; design: method as in https://dtp.cancer.gov/dtpstandard/dwindex/index.jsp; conditions: reference drugs, ref https://dtp.cancer.gov/dtpstandard/dwindex/index.jsp; cited from earlier work
MALME-3M = tested on: MALME-3M; design: method as in https://dtp.cancer.gov/dtpstandard/dwindex/index.jsp; conditions: reference drugs, ref https://dtp.cancer.gov/dtpstandard/dwindex/index.jsp; cited from earlier work
SK-MEL-2 = tested on: SK-MEL-2; design: method as in https://dtp.cancer.gov/dtpstandard/dwindex/index.jsp; conditions: reference drugs, ref https://dtp.cancer.gov/dtpstandard/dwindex/index.jsp; cited from earlier work
SK-MEL-28 = tested on: SK-MEL-28; design: method as in https://dtp.cancer.gov/dtpstandard/dwindex/index.jsp; conditions: reference drugs, ref https://dtp.cancer.gov/dtpstandard/dwindex/index.jsp; cited from earlier work
OVCAR-4 [1] = tested on: OVCAR-4; design: method as in https://dtp.cancer.gov/dtpstandard/dwindex/index.jsp; conditions: reference drugs, ref https://dtp.cancer.gov/dtpstandard/dwindex/index.jsp; cited from earlier work
NCI/ADR-RES = tested on: NCI/ADR-RES; design: method as in https://dtp.cancer.gov/dtpstandard/dwindex/index.jsp; conditions: reference drugs, ref https://dtp.cancer.gov/dtpstandard/dwindex/index.jsp; cited from earlier work
786-0 = tested on: 786-0; design: method as in https://dtp.cancer.gov/dtpstandard/dwindex/index.jsp; conditions: reference drugs, ref https://dtp.cancer.gov/dtpstandard/dwindex/index.jsp; cited from earlier work
A498 = tested on: A498; design: method as in https://dtp.cancer.gov/dtpstandard/dwindex/index.jsp; conditions: reference drugs, ref https://dtp.cancer.gov/dtpstandard/dwindex/index.jsp; cited from earlier work
CAKI-1 = tested on: CAKI-1; design: method as in https://dtp.cancer.gov/dtpstandard/dwindex/index.jsp; conditions: reference drugs, ref https://dtp.cancer.gov/dtpstandard/dwindex/index.jsp; cited from earlier work
SN12C = tested on: SN12C; design: method as in https://dtp.cancer.gov/dtpstandard/dwindex/index.jsp; conditions: reference drugs, ref https://dtp.cancer.gov/dtpstandard/dwindex/index.jsp; cited from earlier work
[2] = tested on: colon cancer tumour cell lines; conditions: cited from earlier work; for GI50: read-out: GI50 (subpanel average), reference drugs, ref https://dtp.cancer.gov/dtpstandard/dwindex/index.jsp; for CC50: read-out: LC50 (subpanel average), reference drugs, ref https://dtp.cancer.gov/dtpstandard/dwindex/index.jsp; for TGI (subpanel average): reference drugs, ref https://dtp.cancer.gov/dtpstandard/dwindex/index.jsp
[3] = tested on: CNS cancer tumour cell lines; conditions: cited from earlier work; for GI50: read-out: GI50 (subpanel average), reference drugs, ref https://dtp.cancer.gov/dtpstandard/dwindex/index.jsp; for CC50: read-out: LC50 (subpanel average), reference drugs, ref https://dtp.cancer.gov/dtpstandard/dwindex/index.jsp; for TGI (subpanel average): reference drugs, ref https://dtp.cancer.gov/dtpstandard/dwindex/index.jsp
[4] = tested on: ovarian cancer tumour cell lines; conditions: cited from earlier work; for GI50: read-out: GI50 (subpanel average), reference drugs, ref https://dtp.cancer.gov/dtpstandard/dwindex/index.jsp; for CC50: read-out: LC50 (subpanel average), reference drugs, ref https://dtp.cancer.gov/dtpstandard/dwindex/index.jsp; for TGI (subpanel average): reference drugs, ref https://dtp.cancer.gov/dtpstandard/dwindex/index.jsp
PRMI-8226 = test: NCI antitumor screen (SRB); type: cell-based; conditions: Homo sapiens; for inhibition at 10 µM: one dose 10 µM, read-out: Growth inhibition percentage (GI%)
NCI-H23 = test: NCI antitumor screen (SRB); type: cell-based; conditions: Homo sapiens; for inhibition at 10 µM: one dose 10 µM, read-out: Growth inhibition percentage (GI%)
HCC-2998 = test: NCI antitumor screen (SRB); type: cell-based; conditions: Homo sapiens; for inhibition at 10 µM: one dose 10 µM, read-out: Growth inhibition percentage (GI%)
HCT-15 = test: NCI antitumor screen (SRB); type: cell-based; conditions: Homo sapiens; for inhibition at 10 µM: one dose 10 µM, read-out: Growth inhibition percentage (GI%)
SF-539 = test: NCI antitumor screen (SRB); type: cell-based; conditions: Homo sapiens; for inhibition at 10 µM: one dose 10 µM, read-out: Growth inhibition percentage (GI%)
SNB-75 = test: NCI antitumor screen (SRB); type: cell-based; conditions: Homo sapiens; for inhibition at 10 µM: one dose 10 µM, read-out: Growth inhibition percentage (GI%)
UACC-257 = test: NCI antitumor screen (SRB); type: cell-based, human; conditions: for inhibition at 10 µM: read-out: Growth inhibition percentage (GI%)
IGROV1 = test: NCI antitumor screen (SRB); type: cell-based; conditions: Homo sapiens; for inhibition at 10 µM: IGROV-1, one dose 10 µM, read-out: Growth inhibition percentage (GI%)
OVCAR-4 [5] = test: NCI antitumor screen (SRB); type: cell-based; conditions: Homo sapiens; for inhibition at 10 µM: one dose 10 µM, read-out: Growth inhibition percentage (GI%)
SK-OV-3 = test: NCI antitumor screen (SRB); type: cell-based; conditions: Homo sapiens; for inhibition at 10 µM: one dose 10 µM, read-out: Growth inhibition percentage (GI%)
UO-31 = test: NCI antitumor screen (SRB); type: cell-based, human; conditions: for inhibition at 10 µM: read-out: Growth inhibition percentage (GI%)
DU-145 = test: NCI antitumor screen (SRB); type: cell-based; conditions: Homo sapiens; for inhibition at 10 µM: one dose 10 µM, read-out: Growth inhibition percentage (GI%)
HS 578 T = test: NCI antitumor screen (SRB); type: cell-based; conditions: Homo sapiens; for inhibition at 10 µM: one dose 10 µM, read-out: Growth inhibition percentage (GI%)
OVCAR-8 = test: NCI antitumor screen (SRB); type: cell-based; conditions: Homo sapiens; for inhibition at 10 µM: one dose 10 µM, read-out: Growth inhibition percentage (GI%)
MDA-MB-468 [6] = test: NCI antitumor screen (SRB); type: cell-based; conditions: Homo sapiens; for inhibition at 10 µM: one dose 10 µM, read-out: Growth inhibition percentage (GI%)
NCI-H226 = tested on: NCI-H226; design: method as in https://dtp.cancer.gov/dtpstandard/dwindex/index.jsp; conditions: reference drugs, ref https://dtp.cancer.gov/dtpstandard/dwindex/index.jsp; cited from earlier work
NCI-H522 = tested on: NCI-H522; design: method as in https://dtp.cancer.gov/dtpstandard/dwindex/index.jsp; conditions: reference drugs, ref https://dtp.cancer.gov/dtpstandard/dwindex/index.jsp; cited from earlier work
MDA-MB-468 [7] = tested on: MDA-MB-468; design: method as in https://dtp.cancer.gov/dtpstandard/dwindex/index.jsp; conditions: reference drugs, ref https://dtp.cancer.gov/dtpstandard/dwindex/index.jsp; cited from earlier work
[8] = Homo sapiens, UACC-257, one dose 10 µM
[9] = Homo sapiens, UO-31, one dose 10 µM
[10] = five concentrations 0.01-100 µM

SMILES	GI50 [2] [µM]	TGI (subpanel average) [2] [µM]	GI50 [3] [µM]	TGI (subpanel average) [3] [µM]	GI50 [4] [µM]	inhibition at 10 µM (PRMI-8226) [%]	inhibition at 10 µM (NCI-H23) [%]	inhibition at 10 µM (HCC-2998) [%]	inhibition at 10 µM (HCT-15) [%]	inhibition at 10 µM (SF-539) [%]	inhibition at 10 µM (SNB-75) [%]	inhibition at 10 µM (UACC-257; [8]) [%]	inhibition at 10 µM (IGROV1) [%]	inhibition at 10 µM (OVCAR-4 [5]) [%]	inhibition at 10 µM (SK-OV-3) [%]	inhibition at 10 µM (UO-31; [9]) [%]	inhibition at 10 µM (DU-145) [%]	inhibition at 10 µM (HS 578 T) [%]	inhibition at 10 µM (OVCAR-8) [%]	inhibition at 10 µM (MDA-MB-468 [6]) [%]	further results
Cc1ccc(-c2cc(C(F)(F)F)nn2-c2ccc(S(N)(=O)=O)cc2)cc1 [Celecoxib, celecoxib]	20.7	41.39	17.2	31.62	17.1	–	–	–	–	–	–	–	–	–	–	–	–	–	–	–	GI50 (A549/ATCC): 15.8 µM; GI50 (KM12): 15.8 µM; GI50 (SW-620): 15.8 µM; GI50 (LOX IMVI): 19.9 µM; GI50 (MALME-3M): 19.9 µM; GI50 (SK-MEL-2): 15.8 µM; GI50 (SK-MEL-28): 15.8 µM; GI50 (OVCAR-4 [1]): 12.6 µM; GI50 (NCI/ADR-RES): 15.8 µM; GI50 (786-0): 39.8 µM; GI50 (A498): 15.8 µM; GI50 (CAKI-1): 19.9 µM; GI50 (SN12C): 15.8 µM; CC50 [2]: 66.5 µM; CC50 [3]: 58.8 µM; CC50 [4]: 65.9 µM; TGI (subpanel average) [4]: 34.20 µM
O=c1[nH]cc(F)c(=O)[nH]1 [Compound 5-Fu, 5-fluorouracil, reference compound]	0.27	51.41	14.4	73.70	5.17	58.6	61	> 100	73.5	> 100	34.1	80.5	48.8	40.6	22.5	58.7	64.5	> 100	–	–	CC50 [2]: 89.3 µM; CC50 [3]: > 100 µM; CC50 [4]: 92.9 µM; TGI (subpanel average) [4]: 38.36 µM
CS(=O)(=O)c1ccc(C(=O)NN=Cc2cccc3ccccc23)cc1 [Compound 6, 4-(Methylsulfonyl)-N'-(naphthalen-1-ylmethylene)benzohydrazide]	–	–	–	–	–	12.3	10.4	15.5	50.2	10.7	10.3	58.9	36.8	< 10	21.9	21.5	11.2	14.9	16.2	25.8	–
Cc1ccc(C=NNC(=O)c2ccc(S(C)(=O)=O)cc2)cc1 [Compound 9, N'-(4-Methylbenzylidene)-4-(methylsulfonyl)benzohydrazide]	–	–	–	–	–	< 10	< 10	< 10	16.3	< 10	< 10	28.4	12.3	< 10	< 10	12.3	< 10	< 10	< 10	21.5	–
CS(=O)(=O)c1ccc(C(=O)N/N=C/c2ccccc2O)cc1 [Compound 16]	–	–	–	–	–	51.3	45.2	52.7	82	44.7	22.3	77.4	59	56.3	60.1	82	59.6	18.5	72.1	35.3	–
CCN(CC)c1ccc(/C=N/NC(=O)c2ccc(S(C)(=O)=O)cc2)c(O)c1 [Compound 20]	–	–	–	–	–	79	67.2	60.4	71.5	96	44.8	–	78.8	65.3	61	–	75.5	32	83.2	98.8	GI50 (PRMI-8226; [10]): 0.297 µM; GI50 (NCI-H23; [10]): 0.446 µM; GI50 (HCC-2998; [10]): 0.301 µM; GI50 (HCT-15; [10]): 0.092 µM; GI50 (SF-539; [10]): 0.244 µM; GI50 (SNB-75; [10]): 0.228 µM; inhibition at 10 µM (UACC-257; Homo sapiens, UACC-257, UACC-257, one dose 10 µM): 100%; GI50 (UACC-257; Homo sapiens, UACC-257, five concentrations 0.01-100 µM): 0.34 µM; Growth inhibition percentage (GI%) (UACC-257; UACC-257, one dose 10 µM): >100%; GI50 (IGROV1; IGROV-1, five concentrations 0.01-100 µM): 0.196 µM; GI50 (OVCAR-4 [5]; [10]): 0.063 µM; GI50 (OVCAR-8; [10]): 0.25 µM; GI50 (SK-OV-3; [10]): 0.251 µM; inhibition at 10 µM (UO-31; Homo sapiens, UO-31, UO-31, one dose 10 µM): 100%; GI50 (UO-31; Homo sapiens, UO-31, five concentrations 0.01-100 µM): 0.139 µM; Growth inhibition percentage (GI%) (UO-31; UO-31, one dose 10 µM): >100%; GI50 (DU-145; [10]): 0.144 µM; GI50 (HS 578 T; [10]): 11.7 µM; GI50 (MDA-MB-468 [6]; [10]): 0.203 µM
COc1cc2ncnc(Nc3ccc(F)c(Cl)c3)c2cc1OCCCN1CCOCC1 [Gefitinib, gefitinib]	5.23	18.47	5.64	19.62	3.05	–	–	–	–	–	–	–	–	–	–	–	–	–	–	–	GI50 (A549/ATCC): 2.51 µM; GI50 (NCI-H226): 3.98 µM; GI50 (NCI-H522): 1 µM; GI50 (KM12): 10 µM; GI50 (LOX IMVI): 3.16 µM; GI50 (MALME-3M): 3.98 µM; GI50 (SK-MEL-2): 10 µM; GI50 (SK-MEL-28): 3.16 µM; GI50 (NCI/ADR-RES): 1.26 µM; GI50 (786-0): 3.16 µM; GI50 (SN12C): 1.26 µM; GI50 (MDA-MB-468 [7]): 0.0126 µM; TGI (subpanel average) [4]: 33.29 µM
